According to patent publication US6555576B1, “Method for treating exercise induced asthma” (SmithKline Beecham Corporation, priority 1999, dated 2003):

Key:
[1] = target: T1, high affinity rolipram binding site of PDE 4 (HPDE 4); assay: [3H]-rolipram binding assay (high affinity site); conditions: competition with 1 nM [3H]-rolipram, rat brain high speed supernatants, 1 hour at 30° C.
T1 construct: Rat brain high speed supernatants were used as a source of protein
Method: Rat brain high speed supernatants were used as a source of protein. […] The assay was run for 1hour at 30° C. The reaction was terminated and bound ligand was separated from free ligand using a Brandel cell harvester. Competition for the high affinity binding site was assessed under conditions that were identical to those used for measuring low affinity PDE activity, expect that [^3H]-cAMP was not present.

[2] = system: low affinity form of PDE 4 (LPDE 4); assay: PDE 4 catalytic activity assay (low affinity form); type: biochemical, human; conditions: HPDE 4 IC50 divided by LPDE 4 IC50
Method: Consequently, inhibition of recombinant PDE 4 catalytic activity primarily reflects the actions of compounds at LPDE 4. Inhibition of PDE 4 catalytic activity can thus be used as an index of the potency of compounds at LPDE 4.
Isolated human monocyte PDE 4 and hrPDE 4 was determined to exist primarily in the low affinity form.

acid secretion = conditions: rats, particularly in combination with an activator of adenylate cyclase such as histamine; cited from earlier work
patients with EIA = assay: Exercise challenge study in patients with EIA; type: in vivo, human
Method: A randomized, double-blind, placebo-controlled, two-period cross-over study was conducted to assess the efficacy, safety and tolerability of cis-[4-cyano-4-(3-cyclopentyloxy-4-methoxyphenyl)cyclohexan-1-carboxylate] in patients with EIA. 27 patients with EIA were randomized to receive the compound, 10 mg BID immediate release tablet or placebo, for 7 days followed by a 7 day washout and the alternate treatment for 7 days. Exercise challenge tests were performed after a single dose on day 1, and again on day 7 (pre-dose and three hours post-dose).
The patient population consisted of non-smoking men or women, ages 18 to 60 years with EIA such that:
a) their forced expiratory volume in one second (FEV1) was greater than or equal to 70% of predicted normal,
b) the documented fall in FEV1 was greater than or equal to 15% in response to exercise testing at a screening visit, and
c) they were not taking inhaled corticosteroids or other controller medications for asthma.
The Exercise Challenge Protocol was as follows. Patients were exercised on a motorized treadmill for six minutes at target heart rate. Speed and inclination were adjusted to achieve a target heart rate for each patient of 85% of age-adjusted maximum predicted. Patients breathed compressed air (0% humidity at room temperature) during the test through a face mask. Pulmonary function tests (KoKo pneumotach) were performed 1, 5, 10, 15, 20, 30 and 45 minutes after completion of the test and continued thereafter if FEV1 had not returned to within 10% of the baseline.
The primary efficacy variable was the maximum percentage decrease (MPD) in the FEV1 in response to exercise. The results indicated significant improvement in MPD FEV1 after one dose of the compound, from a mean MPD of 32.88% to 23.57%. There was an incremental effect of the compound after 7 days of dosing with further improvement in mean MPD FEV1 to 21.8%. […] See also, Am. J. Resp. Crit. Care Med. 1998:157; A413, incorporated herein in its entirety by reference.

[3] = human, in vivo; cited from earlier work

Compound: COc1ccc(C2CN(Cc3ccc(N)cc3)C(=O)N2)cc1OC1CCCC1 (stereo not drawn) [1-(4-aminobenzyl)-4-(3-cyclopentyloxy-4-methoxyphenyl)-2-imidazolidinone]
- IC50 [1]: 0.1 µM
- High/Low Ratio (IC50 high affinity / IC50 low affinity) [2]: 0.07

Compound: COc1ccc(C2CCC(c3nnn[nH]3)C2)cc1OC1CCCC1 (stereo not drawn) [1-(5-tetrazole)-3-(3-cyclopentyloxy-4-methoxyphenyl)cyclopentane]
- High/Low Ratio (IC50 high affinity / IC50 low affinity) [2]: 0.0018

Compound: COc1ccc(C2CCN(Cc3ccc(NC(=NC#N)SC)cc3)C2=O)cc1OC1CCCC1 (stereo not drawn) [3-(cyclopentyl-oxy-4-methoxyphenyl)-1-(4-N′-[N2-cyano-S-methyl-isothioureido]benzyl)-2-pyrrolidone]
- High/Low Ratio (IC50 high affinity / IC50 low affinity) [2]: 0.30

Compound: CCOC(=O)C=C1C[C@H](c2ccc(OC)c(OC3CCCC3)c2)CN1 [(R)-(+)-ethyl [4-(3-cyclopentyloxy-4-methoxyphenyl)pyrrolidine-2-ylidene]acetate]
- High/Low Ratio (IC50 high affinity / IC50 low affinity) [2]: 2.143

Compound: CCOC(=O)C=C1C[C@@H](c2ccc(OC)c(OC3CCCC3)c2)CN1 [(S)-(−)-ethyl [4-(3-cyclopentyloxy-4-methoxyphenyl)pyrrolidine-2-ylidene]acetate]
- High/Low Ratio (IC50 high affinity / IC50 low affinity) [2]: .98

Compound: CC(C)Cn1c(=O)n(C)c(=O)c2[nH]cnc21 [IBMX, reference compound]
- High/Low Ratio (IC50 high affinity / IC50 low affinity) [2]: 0.698

Compound: NC(=O)C(=O)NCCc1ccc(OC(F)F)c(OC(F)F)c1 [N-[2-(3,4-bisdifluoromethoxy-phenyl)ethyl]oxamide]
- IC50 [1]: 0.4 µM
- High/Low Ratio (IC50 high affinity / IC50 low affinity) [2]: 0.25

Compound: COc1ccc(CCNC(=O)C(N)=O)cc1OC1CCCC1 [N-[2-(3-cyclopentyloxy-4-methoxyphenyl)ethyl]oxamide]
- High/Low Ratio (IC50 high affinity / IC50 low affinity) [2]: 0.013

Compound: CCCCOc1cc(CC2CNC(=O)N2)ccc1OC (stereo not drawn) [Ro 20-1724, reference compound]
- effect on acid secretion (acid secretion): enhance acid secretion
- IC50 [1]: 0.19 µM

Compound: COc1ccc(C2(C#N)CCC(C(=O)O)CC2)cc1OC1CCCC1 (stereo not drawn) [cis-[4-cyano-4-(3-cyclopentyloxy-4-methoxyphenyl)cyclohexan-1-carboxylate]]
- safety and tolerability (patients with EIA; 10 mg BID for 7 days, patients with EIA): safe and well tolerated, with no treatment-related serious adverse experiences or withdrawals
- effects in humans suffering from EIA (patients with EIA; administered to humans suffering from EIA): reduced inflammation, bronchodilation and pulmonary neuromodulation
- mean maximum percentage decrease (MPD) in FEV1 in response to exercise (patients with EIA; after 7 days of dosing, 10 mg BID): 21.8%
- mean maximum percentage decrease (MPD) in FEV1 in response to exercise (patients with EIA; after one dose, 10 mg immediate release tablet, improved from mean MPD of 32.88%): 23.57%
- patients with a fall in FEV1 of less than or equal to 15% after exercise (patients with EIA; after one week of treatment, 10 mg BID): 40%

Compound: CCCCn1c(=O)c2c(ncn2CC(C)=O)n(CCCC)c1=O [denbufylline, 7-acetonyl, 1,3-dibutyixanthine]
- side effects in clinical studies [3]: may include pyrosis, nausea and emesis

Compound: OCCN(CCO)c1nc(N2CCCCC2)c2nc(N(CCO)CCO)nc(N3CCCCC3)c2n1 [dipyridamole, 2,2′,2″,2′-[(4,8-dipiperldinopyrimido[5,4-d]pyrmidine-2-6-diyl)dinitrilo]tetraethanol, reference compound]
- High/Low Ratio (IC50 high affinity / IC50 low affinity) [2]: 6.25

Compound: COc1ccc(C2CNC(=O)C2)cc1OC1CCCC1 (stereo not drawn) [rolipram]
- effect on acid secretion (acid secretion): enhance acid secretion
- side effects in clinical studies [3]: has psychotropic activity and produces gastrointestinal effects, e.g., pyrosis, nausea and emesis
